Measurements taken from the supplement of paper PMC10307832.

Columns and labels:
Test in all cases: relative viability (nuclei count vs DMSO), 5 days (fraction); higher = more cells survive
[1] = compound: CN(C)C/C=C/C(=O)Nc1cc2c(Nc3ccc(F)c(Cl)c3)ncnc2cc1O[C@H]1CCOC1 [Afatinib] + Nc1ncn([C@H]2C[C@H](O)[C@@H](CO)O2)c(=O)n1 [Decitabine] (partner 2 µM)
Procedure, shortened: (§1)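 Lung cancer cell lines, seeded in 1536-well plates, were treated the following day by pin tool with a single drug or with five library-drug doses (not always all listed) in √10 steps on top of a fixed anchor-drug dose. Cells were fixed and nuclei stained in one step after 5 days, and nuclei were counted. Relative viability is the nuclei count for treated wells divided by that for vehicle wells, reported as medians of duplicate plates.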

[2] = compound: CN(C)C/C=C/C(=O)Nc1cc2c(Nc3ccc(F)c(Cl)c3)ncnc2cc1O[C@H]1CCOC1 [Afatinib] + O=C(c1cc(Cc2n[nH]c(=O)c3ccccc23)ccc1F)N1CCN(C(=O)C2CC2)CC1 [Olaparib] (partner 8 µM)
Procedure, shortened: as §1

[3] = compound: CN(C)C/C=C/C(=O)Nc1cc2c(Nc3ccc(F)c(Cl)c3)ncnc2cc1O[C@H]1CCOC1 [Afatinib] + CS(=O)(=O)CCNCc1ccc(-c2ccc3ncnc(Nc4ccc(OCc5cccc(F)c5)c(Cl)c4)c3c2)o1 [Lapatinib] (partner 2 µM)
Procedure, shortened: as §1

[4] = compound: CN(C)C/C=C/C(=O)Nc1cc2c(Nc3ccc(F)c(Cl)c3)ncnc2cc1O[C@H]1CCOC1 [Afatinib] + NC(=O)Nc1cc(-c2cccc(F)c2)sc1C(=O)N[C@H]1CCCNC1 [AZD7762] (partner 0.2 µM)
Procedure, shortened: as §1

Cell Line | relative viability ([1]; first compound 0.005 µM) | relative viability ([1]; first compound 0.01581 µM) | relative viability ([1]; first compound 0.05 µM) | relative viability ([1]; first compound 0.1581 µM) | relative viability ([1]; first compound 0.5 µM) | relative viability ([2]; first compound 0.005 µM) | relative viability ([2]; first compound 0.01581 µM) | relative viability ([2]; first compound 0.05 µM) | relative viability ([2]; first compound 0.1581 µM) | relative viability ([2]; first compound 0.5 µM) | relative viability ([3]; first compound 0.005 µM) | relative viability ([3]; first compound 0.01581 µM) | relative viability ([3]; first compound 0.05 µM) | relative viability ([3]; first compound 0.1581 µM) | relative viability ([3]; first compound 0.5 µM) | relative viability ([4]; first compound 0.005 µM) | relative viability ([4]; first compound 0.01581 µM) | relative viability ([4]; first compound 0.05 µM) | relative viability ([4]; first compound 0.1581 µM) | relative viability ([4]; first compound 0.5 µM)
NCI-H1437 | 0.597 | 0.552 | 0.542 | 0.535 | 0.552 | 0.657 | 0.64 | 0.642 | 0.596 | 0.569 | 0.891 | 0.79 | 0.758 | 0.778 | 0.779 | 1.11 | 1.05 | 1.19 | 1.09 | 1.2
NCI-H1651 | 0.558 | 0.57 | 0.6 | 0.576 | 0.585 | 0.173 | 0.186 | 0.179 | 0.17 | 0.21 | 0.925 | 0.841 | 0.763 | 0.834 | 0.803 | 0.396 | 0.361 | 0.424 | 0.421 | 0.451
NCI-H1666 | 0.702 | 0.67 | 0.642 | 0.562 | 0.657 | 0.78 | 0.792 | 0.75 | 0.712 | 0.681 | 0.592 | 0.621 | 0.618 |  | 0.834 | 0.824 | 0.776 | 0.824 | 0.608 | 0.76
NCI-H1734 | 0.542 | 0.538 | 0.47 | 0.491 | 0.489 | 0.666 | 0.569 | 0.621 | 0.58 | 0.551 | 1.06 | 1.01 | 1.06 | 1.01 | 1.09 | 0.389 | 0.602 | 0.58 | 0.498 | 0.471
NCI-H1755 | 0.725 | 0.693 | 0.728 | 0.695 | 0.661 | 0.906 | 0.857 | 0.921 | 0.864 | 0.813 | 1.11 | 1.03 | 1.09 | 1.04 | 1.07 | 0.359 | 0.562 | 0.528 | 0.398 | 0.417
NCI-H1792 | 0.505 | 0.592 | 0.489 | 0.522 | 0.513 | 0.437 | 0.531 | 0.506 | 0.526 | 0.489 | 0.999 | 0.783 | 0.825 | 0.972 | 0.971 | 0.615 | 0.534 | 0.703 | 0.643 | 0.466
NCI-H1793 | 0.43 | 0.344 | 0.329 | 0.27 | 0.417 | 0.659 | 0.633 | 0.461 | 0.398 | 0.582 | 0.679 | 0.733 | 0.962 | 0.995 | 0.467 | 0.193 | 0.304 | 0.451 | 0.268 | 0.231
NCI-H1915 | 0.269 | 0.268 | 0.272 | 0.268 | 0.269 | 0.255 |  | 0.244 | 0.27 | 0.259 | 1.02 | 0.944 | 0.994 | 0.959 | 0.876 | 0.67 | 0.708 | 0.685 | 0.723 | 0.682
